Measured values reported in patent US8420657B2 (Novartis AG, priority 2008, dated 2013).

Key:
[1] = tested on: JAK2-dependent nuclear translocation of STAT5-GFP in U-2 OS osteosarcoma cells; experiment: STAT5 nuclear translocation assay (Cellomics), rhEpo stimulated U-2 OS STAT5-GFP cells; type: cell-based; details: STAT5 translocation pathway
How it was run: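 U-2 OS cells stably expressing STAT5a-GFP and EpoR pre-treated with compound (final 10 μM to 0.003 μM, 0.1% DMSO) for 30 min at 37° C., then stimulated 1 h with 5 U/ml rhEpo. Nuclear-cytoplasmic GFP differential quantified by automated imaging (≥1000 cells/well, Hoechst nuclear mask). IC50 from % translocation normalized to untreated and DMSO-stimulated controls.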

GST-JAK2(808-1132) = target: T1, GST-JAK2(808-1132) (Homo sapiens, UniProt O60674); experiment: JAK2 kinase assay (Caliper mobility shift, LabChip 3000); type: biochemical
T1 construct: GST-JAK2(808-1132); purchased Invitrogen (Carlsbad, USA) #4288
How it was run: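 Recombinant GST-JAK2(808-1132) kinase domain with FITC-labelled JAK3tide peptide substrate and ATP; 60 min at 30 °C, EDTA stop. Substrate/product ratio read by microfluidic mobility shift; compounds at 8 final concentrations, 10 to 0.003 μM.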

[2] = tested on: JAK1/JAK2-dependent nuclear translocation of STAT1-GFP in HT1080 fibrosarcoma cells; experiment: STAT1 nuclear translocation assay (Cellomics), IFN-γ stimulated HT1080 STAT1-GFP cells; type: cell-based; details: Homo sapiens, HT-1080, STAT1 translocation pathway
How it was run: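 HT1080 cells stably expressing STAT1-GFP, pre-treated 30 min with compound (10 μM–0.003 μM, 0.1% DMSO), then stimulated 2 h with 100 ng/ml IFN-γ, fixed and Hoechst-stained. Nuclear-cytoplasmic GFP differential imaged over ≥1000 cells/well, normalised to unstimulated and DMSO-stimulated wells for IC50.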

T1 sequence (O60674 808-1132): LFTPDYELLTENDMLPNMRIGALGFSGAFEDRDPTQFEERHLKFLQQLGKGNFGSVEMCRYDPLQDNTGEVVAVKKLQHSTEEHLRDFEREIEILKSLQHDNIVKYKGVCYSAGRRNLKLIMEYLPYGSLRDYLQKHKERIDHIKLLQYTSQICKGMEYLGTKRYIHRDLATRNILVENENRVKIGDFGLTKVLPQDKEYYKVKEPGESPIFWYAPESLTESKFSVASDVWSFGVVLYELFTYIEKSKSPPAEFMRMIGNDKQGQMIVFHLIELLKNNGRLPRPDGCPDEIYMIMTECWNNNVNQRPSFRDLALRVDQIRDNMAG

IC50 ([1]; Homo sapiens, U2OS) [nM] | IC50 (GST-JAK2(808-1132)) [nM] | IC50 [2] [nM] | IC50 [1] [nM] | Compound
14.8 | 4.1 | – | – | CCN1CCOC[C@@H]1c1ccc(Nc2ncc3ccn(-c4cc(F)c(CN5CCOCC5)c(F)c4)c3n2)cc1 [Example 508, [7-(3,5-Difluoro-4-morpholin-4-ylmethyl-phenyl)-7H-pyrrolo[2,3-d]pyrimidin-2-yl]-[4-((S)-4-ethyl-morpholin-3-yl)-phenyl]-amine]
43.1 | < 3 | – | – | CN1CCOC[C@@H]1c1ccc(Nc2ncc3ccn(-c4cc(F)c(CN5CCOCC5)c(F)c4)c3n2)cc1 [Example 509, [7-(3,5-Difluoro-4-morpholin-4-ylmethyl-phenyl)-7H-pyrrolo[2,3-d]pyrimidin-2-yl]-[4-((S)-4-methyl-morpholin-3-yl)-phenyl]-amine]
1 | ≤ 3 | – | – | Cc1cc(Nc2ncc3ccn(-c4cc(F)c(CN5CCOCC5)c(F)c4)c3n2)cnc1N1C[C@@H](C)N[C@@H](C)C1 [Example 510, [7-(3,5-Difluoro-4-morpholin-4-ylmethyl-phenyl)-7H-pyrrolo[2,3-d]pyrimidin-2-yl]-[6-(cis-3,5-dimethyl-piperazin-1-yl)-5-methyl-pyridin-3-yl]-amine]
3.9 | ≤ 3 | – | – | Fc1cc(-n2ccc3cnc(Nc4ccc([C@H]5COCCN5)cc4)nc32)cc(F)c1CN1CCOCC1 [Example 511, [7-(3,5-Difluoro-4-morpholin-4-ylmethyl-phenyl)-7H-pyrrolo[2,3-d]pyrimidin-2-yl]-((S)-4-morpholin-3-yl-phenyl)-amine]
14 | ≤ 3 | – | – | Cc1cc(Nc2ncc3ccn(-c4cc(F)c(CN5CCOCC5)c(F)c4)c3n2)cnc1N1CCNCC(F)(F)C1 [Example 512, [6-(6,6-Difluoro-[1,4]diazepan-1-yl)-5-methyl-pyridin-3-yl]-[7-(3,5-difluoro-4-morpholin-4-ylmethyl-phenyl)-7H-pyrrolo[2,3-d]pyrimidin-2-yl]-amine]
116 | 4.6 | – | – | Fc1cc(-n2ccc3cnc(Nc4ccc(OCCN5CCOCC5)nc4)nc32)cc(F)c1CN1CCOCC1 [Example 513, [7-(3,5-Difluoro-4-morpholin-4-ylmethyl-phenyl)-7H-pyrrolo[2,3-d]pyrimidin-2-yl]-[6-(2-morpholin-4-yl-ethoxy)-pyridin-3-yl]-amine]
54 | ≤ 3 | – | – | Fc1cc(-n2ccc3cnc(Nc4ccc(OC5CCOCC5)nc4)nc32)cc(F)c1CN1CCOCC1 [Example 515, [7-(3,5-Difluoro-4-morpholin-4-ylmethyl-phenyl)-7H-pyrrolo[2,3-d]pyrimidin-2-yl]-[6-(tetrahydro-pyran-4-yloxy)-pyridin-3-yl]-amine]
119 | 6.4 | – | – | COCCOc1ccc(Nc2ncc3ccn(-c4cc(F)c(CN5CCOCC5)c(F)c4)c3n2)cn1 [Example 516, [7-(3,5-Difluoro-4-morpholin-4-ylmethyl-phenyl)-7H-pyrrolo[2,3-d]pyrimidin-2-yl]-[6-(2-methoxy-ethoxy)-pyridin-3-yl]-amine]
69.5 | ≤ 3 | – | – | Fc1cc(-n2ccc3cnc(Nc4ccc(OCC5CCOCC5)nc4)nc32)cc(F)c1CN1CCOCC1 [Example 517, [7-(3,5-Difluoro-4-morpholin-4-ylmethyl-phenyl)-7H-pyrrolo[2,3-d]pyrimidin-2-yl]-[6-(tetrahydro-pyran-4-ylmethoxy)-pyridin-3-yl]-amine]
39.5 | ≤ 3 | – | – | OCCOc1ccc(Nc2ncc3ccn(-c4cc(F)c(CN5CCOCC5)c(F)c4)c3n2)cn1 [Example 518, 2-{5-[7-(3,5-Difluoro-4-morpholin-4-ylmethyl-phenyl)-7H-pyrrolo[2,3-d]pyrimidin-2-ylamino]-pyridin-2-yloxy}-ethanol]
543 | 57 | – | – | Fc1cc(-n2ccc3cnc(Nc4ccc([C@H]5COCCN5CCOCc5ccccc5)cc4)nc32)cc(F)c1CN1CCOCC1 [Example 520, {4-[(S)-4-(2-Benzyloxy-ethyl)-morpholin-3-yl]-phenyl}-[7-(3,5-difluoro-4-morpholin-4-ylmethyl-phenyl)-7H-pyrrolo[2,3-d]pyrimidin-2-yl]-amine]

More lines, now with the values behind:

Compound | IC50 ([1]; Homo sapiens, U2OS) [nM] | IC50 (GST-JAK2(808-1132)) [nM] | IC50 [2] [nM] | IC50 [1] [nM]
C[C@@H]1CN(Cc2c(F)cc(-n3ccc4cnc(Nc5ccc(N6CCN(C)CC6)nc5)nc43)cc2F)C[C@H](C)O1 [Example 447, {7-[4-(cis-2,6-dimethyl-morpholin-4-ylmethyl)-3,5-difluoro-phenyl]-7H-pyrrolo[2,3-d]pyrimidin-2-yl}-[6-(4-methyl-piperazin-1-yl)-pyridin-3-yl]-amine] | 11.8 | 9.6 | 105 | –
O=C1CN(c2cc(Nc3ncc4ccn(-c5cc(F)c(CN6CCOCC6)c(F)c5)c4n3)ccn2)CCN1 [Example 500, 4-{4-[7-(3,5-Difluoro-4-morpholin-4-ylmethyl-phenyl)-7H-pyrrolo[2,3-d]pyrimidin-2-ylamino]-pyridin-2-yl}-piperazin-2-one] | 16 | ≤ 3 | – | –
Fc1cc(-n2ccc3cnc(Nc4ccc(C5CCNCC5)nc4)nc32)cc(F)c1CN1CCOCC1 [Example 501, [7-(3,5-Difluoro-4-morpholin-4-ylmethyl-phenyl)-7H-pyrrolo[2,3-d]pyrimidin-2-yl]-(1,2′,3′,4′,5′,6′-hexahydro-[2,4′]bipyridinyl-5-yl)-amine] | 38 | ≤ 3 | – | –
Fc1cc(-n2ccc3cnc(Nc4cnc(N5CCNCC5)c(Cl)c4)nc32)cc(F)c1CN1CCOCC1 [Example 502, (5-Chloro-6-piperazin-1-yl-pyridin-3-yl)-[7-(3,5-difluoro-4-morpholin-4-ylmethyl-phenyl)-7H-pyrrolo[2,3-d]pyrimidin-2-yl]-amine] | 17 | ≤ 3 | – | –
CN1CCN(c2cc(Nc3ncc4ccn(-c5cc(F)c(CN6CCOCC6)c(F)c5)c4n3)ccn2)CC1=O [Example 504, 4-{4-[7-(3,5-Difluoro-4-morpholin-4-ylmethyl-phenyl)-7H-pyrrolo[2,3-d]pyrimidin-2-ylamino]-pyridin-2-yl}-1-methyl-piperazin-2-one] | 81.5 | ≤ 3 | – | –
CN1CCN(Cc2ccc(Nc3ncc4ccn(-c5cc(F)c(CN6CCOCC6)c(F)c5)c4n3)cn2)CC1=O [Example 505, 4-{5-[7-(3,5-Difluoro-4-morpholin-4-methyl-phenyl)-7H-pyrrolo[2,3-d]pyrimidin-2-ylamino]-pyridin-2-ylmethyl}-1-methyl-piperazin-2-one] | 60 | 4.1 | – | –
Fc1cc(-n2ccc3cnc(Nc4cccc([C@H]5COCCN5)c4)nc32)cc(F)c1CN1CCOCC1 [Example 507, [7-(3,5-Difluoro-4-morpholin-4-ylmethyl-phenyl)-7H-pyrrolo[2,3-d]pyrimidin-2-yl]-((S)-3-morpholin-3-yl-phenyl)-amine] | 0.2 | < 3 | – | –
[6-Azetidin-3-yloxy)-pyridin-3-yl]-[7-(3,5-difluoro-4-morpholin-4-ylmethyl-phenyl)-7H-pyrrolo[2,3-d]pyrimidin-2-yl]-amine [Example 514] | – | 25 | – | 1320
